Assay results from PubChem BioAssay AID1259407 (Chemical Carcinogenesis Research Information System (CCRIS), 2018).
Activity calls are given as the source filed them. How the calls were made is not given here.

Tested on: CCRIS mutagenicity, Ames/micronucleus/aberration tests
Test: CCRIS mutagenicity studies
[1] = Test System: AMES SALMONELLA TYPHIMURIUM, Strain/Indicator: TA98, Metabolic Activation: RAT, LIVER, S-9, AROCLOR 1254, Method: STANDARD PLATE
[2] = Test System: AMES SALMONELLA TYPHIMURIUM, Strain/Indicator: TA100, Metabolic Activation: RAT, LIVER, S-9, AROCLOR 1254, Method: STANDARD PLATE
[3] = Test System: MOUSE LYMPHOMA, Strain/Indicator: L5178Y (TK+/TK-), Metabolic Activation: NONE, Method: SUSPENSION/PLATE
[4] = Test System: AMES SALMONELLA TYPHIMURIUM, Strain/Indicator: TA98, Metabolic Activation: NONE, Method: STANDARD PLATE
[5] = Test System: AMES SALMONELLA TYPHIMURIUM, Strain/Indicator: TA100, Metabolic Activation: NONE, Method: STANDARD PLATE

For `Oc1ccc2ccc3c4c(cc5ccc1c2c53)[C@@H](O)[C@H](O)C=C4`, the mutagenic call (Test System: AMES SALMONELLA TYPHIMURIUM, Strain/Indicator: TA97, Metabolic Activation: RAT, LIVER, S-9, AROCLOR 1254, Method: STANDARD PLATE) was “active; positive”, the mutagenic call [1] was “active; positive” and the mutagenic call [2] was “active; positive”. For the same molecule, the mutagenic call (Test System: AMES SALMONELLA TYPHIMURIUM, Strain/Indicator: TA1537, Metabolic Activation: RAT, LIVER, S-9, AROCLOR 1254, Method: STANDARD PLATE) was “active; positive” and the mutagenic call (Test System: CHINESE HAMSTER V-79, Strain/Indicator: V-79/6-THIOGUANINE, Metabolic Activation: RAT, LIVER, S-9, AROCLOR 1254) was “active; positive”.

With `C=CC` the mutagenic call [3] was “inactive; negative” and the mutagenic call (Test System: MOUSE LYMPHOMA, Strain/Indicator: L5178Y (TK+/TK-), Metabolic Activation: RAT, LIVER, S-9, Method: SUSPENSION/PLATE) was “inactive; negative”.

With `Nc1ccn(/C=C/C=O)c(=O)n1` the mutagenic call (Test System: AMES SALMONELLA TYPHIMURIUM, Strain/Indicator: HISD3052, Metabolic Activation: NONE, Method: STANDARD PLATE) was “active; positive”.

For `O=C1O[C@@H]2[C@@H](O)CO[C@]2(O)[C@@]1(O)Cc1c[nH]c2ccccc12`, the mutagenic call [4] was “inactive; negative”, the mutagenic call (Test System: AMES SALMONELLA TYPHIMURIUM, Strain/Indicator: TA98, Metabolic Activation: RAT, LIVER, S-9, PCB, Method: STANDARD PLATE) was “inactive; negative” and the mutagenic call [5] was “inactive; negative”. For the same molecule, the mutagenic call (Test System: AMES SALMONELLA TYPHIMURIUM, Strain/Indicator: TA100, Metabolic Activation: RAT, LIVER, S-9, PCB, Method: STANDARD PLATE) was “inactive; negative”.

For `Cc1ncc[nH]1`, the mutagenic call (End Point: IN VIVO MICRONUCLEUS, Test System: BONE MARROW POLYCHROMATIC ERYTHROCYTES, Species: MOUSE, Strain/Sex: B6C3F1/MALE, Route: IP) was “inactive; negative”, the mutagenic call (End Point: IN VIVO MICRONUCLEUS, Test System: BONE MARROW POLYCHROMATIC ERYTHROCYTES, Species: RAT, Strain/Sex: F344/N/MALE, Route: IP) was “inactive; negative” and the mutagenic call (End Point: IN VIVO MICRONUCLEUS, Test System: PERIPHERAL BLOOD NORMOCHROMATIC ERYTHROCYTES, Species: MOUSE, Strain/Sex: B6C3F1/MALE, FEMALE, Route: ORAL (DIET)) was “active; positive”. For the same molecule, the mutagenic call (Test System: AMES SALMONELLA TYPHIMURIUM, Strain/Indicator: TA97, Metabolic Activation: HAMSTER, LIVER, S-9, AROCLOR 1254, Method: PREINCUBATION) was “inactive; negative”, the mutagenic call (Test System: AMES SALMONELLA TYPHIMURIUM, Strain/Indicator: TA97, Metabolic Activation: NONE, Method: PREINCUBATION) was “inactive; negative” and the mutagenic call (Test System: AMES SALMONELLA TYPHIMURIUM, Strain/Indicator: TA97, Metabolic Activation: RAT, LIVER, S-9, AROCLOR 1254, Method: PREINCUBATION) was “inactive; negative”. The mutagenic call (Test System: AMES SALMONELLA TYPHIMURIUM, Strain/Indicator: TA98, Metabolic Activation: HAMSTER, LIVER, S-9, AROCLOR 1254 (10%), Method: STANDARD PLATE) was “inactive; negative”, the mutagenic call (Test System: AMES SALMONELLA TYPHIMURIUM, Strain/Indicator: TA98, Metabolic Activation: HAMSTER, LIVER, S-9, AROCLOR 1254, Method: PREINCUBATION) was “inactive; negative” and the mutagenic call (Test System: AMES SALMONELLA TYPHIMURIUM, Strain/Indicator: TA98, Metabolic Activation: NONE, Method: PREINCUBATION) was “inactive; negative”. For the same molecule, the mutagenic call [4] was “inactive; negative”, the mutagenic call (Test System: AMES SALMONELLA TYPHIMURIUM, Strain/Indicator: TA98, Metabolic Activation: RAT, LIVER, S-9, AROCLOR 1254 (10%), Method: STANDARD PLATE) was “inactive; negative” and the mutagenic call (Test System: AMES SALMONELLA TYPHIMURIUM, Strain/Indicator: TA98, Metabolic Activation: RAT, LIVER, S-9, AROCLOR 1254, Method: PREINCUBATION) was “inactive; negative”. For the same molecule, the mutagenic call (Test System: AMES SALMONELLA TYPHIMURIUM, Strain/Indicator: TA100, Metabolic Activation: HAMSTER, LIVER, S-9, AROCLOR 1254 (10%), Method: STANDARD PLATE) was “inactive; negative”, the mutagenic call (Test System: AMES SALMONELLA TYPHIMURIUM, Strain/Indicator: TA100, Metabolic Activation: HAMSTER, LIVER, S-9, AROCLOR 1254, Method: PREINCUBATION) was “inactive; negative” and the mutagenic call (Test System: AMES SALMONELLA TYPHIMURIUM, Strain/Indicator: TA100, Metabolic Activation: NONE, Method: PREINCUBATION) was “inactive; negative”. The mutagenic call [5] was “inactive; negative”, the mutagenic call (Test System: AMES SALMONELLA TYPHIMURIUM, Strain/Indicator: TA100, Metabolic Activation: RAT, LIVER, S-9, AROCLOR 1254 (10%), Method: STANDARD PLATE) was “inactive; negative” and the mutagenic call (Test System: AMES SALMONELLA TYPHIMURIUM, Strain/Indicator: TA100, Metabolic Activation: RAT, LIVER, S-9, AROCLOR 1254, Method: PREINCUBATION) was “inactive; negative”. The mutagenic call (Test System: AMES SALMONELLA TYPHIMURIUM, Strain/Indicator: TA1535, Metabolic Activation: HAMSTER, LIVER, S-9, AROCLOR 1254 (10%), Method: STANDARD PLATE) was “inactive; negative”, the mutagenic call (Test System: AMES SALMONELLA TYPHIMURIUM, Strain/Indicator: TA1535, Metabolic Activation: HAMSTER, LIVER, S-9, AROCLOR 1254, Method: PREINCUBATION) was “inactive; negative” and the mutagenic call (Test System: AMES SALMONELLA TYPHIMURIUM, Strain/Indicator: TA1535, Metabolic Activation: NONE, Method: PREINCUBATION) was “inactive; negative”. The mutagenic call (Test System: AMES SALMONELLA TYPHIMURIUM, Strain/Indicator: TA1535, Metabolic Activation: NONE, Method: STANDARD PLATE) was “inactive; negative”, the mutagenic call (Test System: AMES SALMONELLA TYPHIMURIUM, Strain/Indicator: TA1535, Metabolic Activation: RAT, LIVER, S-9, AROCLOR 1254 (10%), Method: STANDARD PLATE) was “inactive; negative” and the mutagenic call (Test System: AMES SALMONELLA TYPHIMURIUM, Strain/Indicator: TA1535, Metabolic Activation: RAT, LIVER, S-9, AROCLOR 1254, Method: PREINCUBATION) was “inactive; negative”. For the same molecule, the mutagenic call (Test System: AMES SALMONELLA TYPHIMURIUM, Strain/Indicator: TA1537, Metabolic Activation: HAMSTER, LIVER, S-9, AROCLOR 1254 (10%), Method: STANDARD PLATE) was “inactive; negative”, the mutagenic call (Test System: AMES SALMONELLA TYPHIMURIUM, Strain/Indicator: TA1537, Metabolic Activation: NONE, Method: STANDARD PLATE) was “inactive; negative” and the mutagenic call (Test System: AMES SALMONELLA TYPHIMURIUM, Strain/Indicator: TA1537, Metabolic Activation: RAT, LIVER, S-9, AROCLOR 1254 (10%), Method: STANDARD PLATE) was “inactive; negative”. For the same molecule, the mutagenic call (Test System: AMES SALMONELLA TYPHIMURIUM, Strain/Indicator: TA1538, Metabolic Activation: HAMSTER, LIVER, S-9, AROCLOR 1254 (10%), Method: STANDARD PLATE) was “inactive; negative”, the mutagenic call (Test System: AMES SALMONELLA TYPHIMURIUM, Strain/Indicator: TA1538, Metabolic Activation: NONE, Method: STANDARD PLATE) was “inactive; negative” and the mutagenic call (Test System: AMES SALMONELLA TYPHIMURIUM, Strain/Indicator: TA1538, Metabolic Activation: RAT, LIVER, S-9, AROCLOR 1254 (10%), Method: STANDARD PLATE) was “inactive; negative”. The mutagenic call [3] was “inactive; negative. reevaluation of results: inconclusive” and the mutagenic call (Test System: MOUSE LYMPHOMA, Strain/Indicator: L5178Y (TK+/TK-), Metabolic Activation: RAT, LIVER, S-9, AROCLOR 1254, Method: SUSPENSION/PLATE) was “inactive; negative. reevaluation of results: inconclusive”.

For `O=[N+]([O-])c1c2c(c3ccc4cccc5ccc1c3c45)C=CCC2`, the mutagenic call [4] was “inactive; negative”, the mutagenic call [1] was “inactive; negative” and the mutagenic call [5] was “inactive; negative”. The mutagenic call [2] was “inactive; negative”.

For `N#Cc1c(Cl)c(Cl)c(Cl)c(C#N)c1Cl`, the mutagenic call (End Point: IN VITRO CHROMOSOMAL ABERRATIONS, Test System: CHINESE HAMSTER OVARY CELLS, Metabolic Activation: NONE) was “active; positive” and the mutagenic call (End Point: IN VITRO CHROMOSOMAL ABERRATIONS, Test System: CHINESE HAMSTER OVARY CELLS, Metabolic Activation: RAT, LIVER, S-9, AROCLOR 1254) was “active; positive”.

With `Cn1ccc2c3c(ccc4ccc(O)cc43)ccc21` the mutagenic call [1] was “inactive; negative” and the mutagenic call (Test System: AMES SALMONELLA TYPHIMURIUM, Strain/Indicator: TA98, Metabolic Activation: RAT, LIVER, S-9, AROCLOR, Method: STANDARD PLATE) was “active; positive”.

For `CC1(C)C[C@@H]2[C@@]34C[C@]3(C(C=O)=C[C@]2(O)C1)[C@@H](O)OC4=O`, the mutagenic call [4] was “active; positive”, the mutagenic call [5] was “active; positive” and the mutagenic call (Test System: AMES SALMONELLA TYPHIMURIUM, Strain/Indicator: TA2637, Metabolic Activation: NONE, Method: STANDARD PLATE) was “active; positive”.
